Where two headings read alike, the source gives them in different places.
Experiments:
Format in all cases: cell-based
IFN-γ = test: Cytokine production (IFN-γ) from KLH-stimulated mouse lymph node cells, ELISA; conditions: Test 3, 4 days
Protocol: (§1) Activity on Cytokines Production from Mouse Lymph Node Cells by Compounds of Working Examples
(§2) BALB/c mice were purchased from Japan Charlse River (Yokohama) and 8 weeks female mice were used.
(§3) D-MEM (High Glucose) medium (Nikken Biomedical Research Lab. (Kyoto), Code No. CM4402) supplemented with 20% heat-inactivated (56° C., 30 min.) fetal bovine serum (Characterized, Code No. A-1115-L, HyClone Lab., Logan, Utah), 50 μM 2-mercaptoethanol (Sigma, St. Louis, Mo., Code No. M-6250), 100 unit/ml penicillin and 100 μg/ml streptomycin (Penicillin-Streptomycin, Bibco-BRL, Code No. 15140-122) were used for the assay.
(§4) Each test compound dissolved in DMSO (Nacalai Tesque (Kyoto) code No. 11J) at a concentration of 100 mM was diluted to final concentration with the medium. […]
(§5) KLH (0.1 mg/ml) and the test compound were added to lymph node cells (2.5×10^6 cells/ml) and the mixture was incubated at 37° C. under 5% CO2 for 4 days (Corning 25850, 0.15 ml/well). Then, amount of cytokine produced in the supernatant was measured by ELISA specific to cytokine.
(§6) Amounts of interleukin 4 (IL-4) and interleukin 5 (IL-5) as a typical Th2 type cytokine, and amount of interferon γ (IFN-γ) as a typical Th1 type cytokine were measured.
(§7) Amount of IL-4 was measured by ELISA as mentioned below. […]

IL-5 = test: Cytokine production (IL-5) from KLH-stimulated mouse lymph node cells, ELISA; conditions: Test 3, 4 days
Protocol: as §1, §2, §3, §4, §5, §6, §7

IL-4 = test: Cytokine production (IL-4) from KLH-stimulated mouse lymph node cells, ELISA; conditions: 4 days; for IC50: Mus musculus, 96 h, lymph node cells of KLH-sensitized BALB/c mice, KLH 0.1 mg/ml, read-out: IL-4 inhibition activity IC50; for production of IL-4: Test 3, KLH-stimulated mouse lymph node cells
Protocol: as §1, §2, §3
Each test compound dissolved in DMSO (Nacalai Tesque (Kyoto) code No. 11J) at a concentration of 100 mM was diluted to final concentration with the medium.
KLH (0.2 mg) was subcutaneously administered to mouse foot with Freund's complete adjuvant (Difco Lab., Detroit, Mich., Code No. 3113-60-5). Eight days later popliteal lymph node was picked up and its cell suspension was prepared.
as §5, §6
Amount of IL-4 was measured by ELISA as mentioned below. A rat anti-mouse IL-4 antibody (Pharmingen, San Diego, Calif., Code No. 18031D, 0.5 mg/ml) as a primary antibody was diluted 250 times with hydrogen carbonate buffer, and it was inoculated to the 96-well plate (Falcon 3912, Becton Dickinson and Company, Flanklin Lakes, N.J.) (50μ/well) and each well was coated at 4° C. overnight. Then the plate was blocked with PBS (−) solution (phosphate-buffered saline without calcium chloride and magnesium chloride) containing 3% BSA (200 μl/well). After rinsing the plate three times with PBS (−) solution containing 0.05% polyoxyethylene solbitan monolaurate (Tween 20™, Nacalai Tesque (Kyoto) Code No. 281-51) (PBST), the supernatant of the culture medium was added to the wells (50 μl/well) and incubated at room temperature for 4 hours. Recombinant mouse IL-4 (Pharmingen, Code No. 19231W) was used for preparing a calibration curve.
After rinsing the plate three times with PBST, a rat anti-mouse IL-4 antibody labeled by biotin (Pharmingen, Code No. 18042D, 0.5 mg/ml) as a secondary antibody, which was diluted 500 times with PBS (−) solution containing 0.1% BSA, was poured into wells (100 μl/well). The plate was incubated at room temperature for one hour. The secondary antibody bound to the plate was detected with streptoabidin alkaliphosphatase (Kirkegaad & Perry Lab., Gaithersburg, Md., Code No. 15-30-00) (0.25 μg/ml, 100 μl/well). After incubation of the plate at 37° C. for one hour and rinsing the plate three times with PBST, the coloring was done by adding PNPP substrate (p-nitrophenyl disodium phosphate substrate (Nacalai Tesque) (1 mg/ml, 100 μl/well)). The absorption at 415 nm was measured by a microplate reader (MTP-120 Microplate reader, Corona Electric Co.)
In the same manner as in Test 1, each test compound dissolved in DMSO (Nacalai Tesque (Kyoto) code No. 11J) at a concentration of 100 mM was diluted to final concentration with the medium. Sensitization and preparation of lymph node cells, production of cytokine by stimulation with an antigen and measurement of amounts of cytokines were conducted in the same method as in Test 1.
By measuring inhibition rate of production of IL-4 at various concentrations of each test compound and using a graph relating to the compound concentration and the inhibition rate, 50% inhibition concentration (IC50) on each test compound was calculated.

**Q.** How did the “production of IFN-γ” value (IFN-γ) turn out when `CCCCCNc1nc(N)ncc1Cc1ccccc1` [Example 27, N-(2-Amino-5-benzylpyrimidine-4-yl)-N-pentylamine] was run?
**A.** enhance the production

**Q.** What about the “production of IL-5” value (IL-5) of the same compound?
**A.** inhibit the production

**Q.** And the IC50 (IL-4; Test 4, Table 2)?
**A.** 1 µg/mL

**Q.** What about the “production of IL-4” value (IL-4) of the same compound?
**A.** inhibit the production

**Q.** Which IC50 (IL-4; Test 2, Table 1) does the source give for `CCCCCNc1nc(N)nc(C)c1CCOC` [Example 22, N-(2-Amino-5-(2-methoxyethyl)-6-methylpyrimidine-4-yl)-N-pentylamine] here?
**A.** 0.5 µg/mL

**Q.** With `CCCCNc1nc(N)nc2c1CCCC2` [Example 5, N-(2-Amino-5,6,7,8-tetrahydroquinazoline-4-yl)-N-butylamine] as the compound, how does the IC50 (IL-4; Test 2, Table 1) read?
**A.** 0.2 µg/mL

**Q.** `CCOCCNc1nc(N)nc2c1CCCC2` [Example 4, N-(2-Amino-5,6,7,8-tetrahydroquinazoline-4-yl)-N-(2-ethoxyethyl)amine] was tested. Which IC50 (IL-4; Test 2, Table 1) did it give?
**A.** 3 µg/mL

**Q.** For `CCCCC(Nc1nc(N)nc2c1CCCC2)C(N)=O` (stereo not drawn) [Example 21], which IC50 (IL-4; Test 2, Table 1) is on record?
**A.** 0.5 µg/mL

**Q.** `CCCCCNc1nc(N)nc2c1CCC2` [Example 20, N-(2-Amino-6,7-dihydro-5H-cyclopenta[d]pyrimidine-4-yl)-N-pentylamine] was tested. Which IC50 (IL-4; Test 2, Table 1) did it give?
**A.** 0.3 µg/mL

**Q.** Which IC50 (IL-4; Test 2, Table 1) does the source give for `CCCCCCc1c(C)nc(N)nc1NCCCCC` [Example 15, N-(2-Amino-5-hexyl-6-methylpyrimidine-4-yl)-N-pentylamine] here?
**A.** 0.4 µg/mL

**Q.** Which IC50 (IL-4; Test 2, Table 1) does the source give for `CCCCC(CO)Nc1nc(N)nc2c1CCCC2` (stereo not drawn) [Example 10, 2-[(2-Amino-5,6,7,8-tetrahydroquinazoline-4-yl)amino]hexane-1-ol] here?
**A.** 0.1 µg/mL

**Q.** For `CCCCCNc1nc(N)nc2c1COCC2` [Example 16, N-(2-Amino-7,8-dihydro-5H-pyrano[4,3-d]pyrimidine-4-yl)-N-pentylamine], which IC50 (IL-4; Test 2, Table 1) is on record?
**A.** 3 µg/mL

**Q.** How did the IC50 (IL-4; Test 2, Table 1) turn out when `CCCCCNc1nc(N)nc(C)c1CCCC` [Example 14, N-(2-Amino-5-butyl-6-methylpyrimidine-4-yl)-N-pentylamine] was run?
**A.** 0.1 µg/mL

**Q.** Which IC50 (IL-4; Test 2, Table 1) does the source give for `CCOC(=O)C(CC(C)C)Nc1nc(N)nc2c1CCCC2` (stereo not drawn) [Example 3, Ethyl-2-[(2-amino-5,6,7,8-tetrahydroquinazoline-4-yl)amino]-4-methylpentanoate] here?
**A.** 0.5 µg/mL

**Q.** `CCOC(=O)C(CO)Nc1nc(N)nc2c1CCCC2` (stereo not drawn) [Example 8, Ethyl 2-[(2-amino-5,6,7,8-tetrahydroquinazoline-4-yl)amino]-3-hydroxypropanoate] was tested. Which IC50 (IL-4; Test 2, Table 1) did it give?
**A.** 1 µg/mL

**Q.** With `CCCC(O)CNc1nc(N)nc2c1CCCC2` (stereo not drawn) [Example 11, 1-[(2-Amino-5,6,7,8-tetrahydroquinazoline-4-yl)amino]pentane-2-ol] as the compound, how does the IC50 (IL-4; Test 2, Table 1) read?
**A.** 0.1 µg/mL

**Q.** `Nc1nc2c(c(NCC3CCCO3)n1)CCCC2` (stereo not drawn) [Example 13, N-(2-Amino-5,6,7,8-tetrahydroquinazoline-4-yl)-N-(tetrahydorofuran-2-ylmethyl)amine] was tested. Which IC50 (IL-4; Test 2, Table 1) did it give?
**A.** 10 µg/mL

**Q.** How did the IC50 (IL-4; Test 2, Table 1) turn out when `CCCCCNc1nc(N)nc(C)c1CC` [Example 24, N-[2-Amino-5-ethyl-6-methylpyrimidine-4-yl)-N-pentylamine] was run?
**A.** 0.2 µg/mL

**Q.** `CCCCCNc1nc(N)nc2c1CCCC2` [Example 19, N-(2-Amino-5,6,7,8-tetrahydroquinazoline-4-yl)-N-pentylamine] was tested. Which IC50 (IL-4; Test 2, Table 1) did it give?
**A.** 0.2 µg/mL

**Q.** Which IC50 (IL-4; Test 2, Table 1) does the source give for `CCCCC(Nc1nc(N)nc2c1CCCC2)C(=O)OC` (stereo not drawn) [Example 9, Methyl 2-[(2-amino-5,6,7,8-tetrahydroquinazoline-4-yl)amino)hexanoate] here?
**A.** 1 µg/mL

**Q.** For `CCCCCNc1nc(N)nc(CCCC)c1C` [Example 17, N-(2-Amino-6-butyl-5-methylpyrimidine-4-yl)-N-pentylamine], which IC50 (IL-4; Test 2, Table 1) is on record?
**A.** 5 µg/mL

**Q.** For `CCCCc1c(C)nc(N)nc1NCC(O)CCC` (stereo not drawn) [Example 25, 1-[(2-Amino-5-butyl-6-methylpyrimidine-4-yl)amino]pentane-2-ol], which IC50 (IL-4; Test 2, Table 1) is on record?
**A.** 0.1 µg/mL

**Q.** `CCCCCNc1nc(N)nc(C)c1C` [Example 18, N-(2-Amino-5,6-dimethylpyrimidine-4-yl)-N-pentylamine] was tested. Which IC50 (IL-4; Test 2, Table 1) did it give?
**A.** 0.3 µg/mL

**Q.** How did the IC50 (IL-4; Test 2, Table 1) turn out when `CCCCCNc1nc(N)nc(C)c1CCC#N` [Example 23, 3-[2-Amino-4-methyl-6-(pentylamino)pyrimidine-5-yl]propanenitrile] was run?
**A.** 0.5 µg/mL

**Q.** For `CCCCCCNc1nc(N)nc2c1CCCC2` [Example 6, N-(2-Amino-5,6,7,8-tetrahydroquinazoline-4-yl)-N-hexylamine], which IC50 (IL-4; Test 2, Table 1) is on record?
**A.** 1 µg/mL

**Q.** For `CCOC(=O)CNc1nc(N)nc2c1CCCC2` [Example 1, Ethyl-2-[(2-amino-5,6,7,8-tetrahydroquinazoline-4-yl)amino]acetate], which IC50 (IL-4; Test 2, Table 1) is on record?
**A.** 0.6 µg/mL

**Q.** Which IC50 (IL-4; Test 2, Table 1) does the source give for `CCCC(=O)CNc1nc(N)nc2c1CCCC2` [Example 12, 1-[(2-Amino-5,6,7,8-tetrahydroquinazoline-4-yl)amino]pentane-2-one] here?
**A.** 1 µg/mL

**Q.** What does the source list for `CCCCCNc1nc(N)nc(C)c1Cc1ccccc1` [Example 26, N-(2-Amino-5-benzyl-6-methylpyrimidine-4-yl)-N-pentylamine]?
**A.** production of IFN-γ (IFN-γ): enhance the production; production of IL-5 (IL-5): inhibit the production; IC50 (IL-4; Test 4, Table 2): 0.5 µg/mL; production of IL-4 (IL-4): inhibit the production

**Q.** `CCOC(=O)C(C)Nc1nc(N)nc2c1CCCC2` (stereo not drawn) [Example 7, Ethyl 2-[(2-amino-5,6,7,8-tetrahydroquinazoline-4-yl)amino]propanoate] was tested. Which IC50 (IL-4; Test 2, Table 1) did it give?
**A.** 0.5 µg/mL

**Q.** For `Nc1nc2c(c(NCC3CCCCC3)n1)CCCC2` [Example 2, N-(2-Amino-5,6,7,8-tetrahydroquinazoline-4-yl)-N-(cyclohexylmethyl)amine], which IC50 (IL-4; Test 2, Table 1) is on record?
**A.** 0.6 µg/mL

From patent publication US6951866B2, “Bicyclic pyrimidine compounds and therapeutic use thereof” (Sumitomo Pharmaceuticals Company, Limited, priority 1998, dated 2005)
